{"source": "patent US20090208517A1", "about": "“Preparation Of Antigen-Presenting Human Gamma-Delta T Cells And Use In Immunotherapy” (priority 2004, published 2009)", "tested_on": "naïve CD4^+ αβ T cells", "type": "cell-based, human"}
{"substance": "phytohemagglutinin [PHA]", "values": [{"measurement": "Vβ2^+ (%) responder cells", "result": 9, "unit": "%"}, {"measurement": "selective expansion of Vβ2^+ T cells (in words)", "result": "does not result in selective expansion of Vβ2^+ T cells"}]}
